Assay results published in article PMC6533141 (Chemical biology & drug design, 2019).

Experiments:
HAT1 = target: T1, HAT1 (Homo sapiens, UniProt O14929); test: Scintillation proximity assay; type: biochemical; settings: SPA, 40 nM HAT1, […] H4-20 BTN, 1 µM [3H]AcCoA, 30°C, 20 min; for Ki: calculated from Kiapp (Equation 2); for IC50: calculated from Kiapp (Equation 3)
T1 sequence (O14929 20-341): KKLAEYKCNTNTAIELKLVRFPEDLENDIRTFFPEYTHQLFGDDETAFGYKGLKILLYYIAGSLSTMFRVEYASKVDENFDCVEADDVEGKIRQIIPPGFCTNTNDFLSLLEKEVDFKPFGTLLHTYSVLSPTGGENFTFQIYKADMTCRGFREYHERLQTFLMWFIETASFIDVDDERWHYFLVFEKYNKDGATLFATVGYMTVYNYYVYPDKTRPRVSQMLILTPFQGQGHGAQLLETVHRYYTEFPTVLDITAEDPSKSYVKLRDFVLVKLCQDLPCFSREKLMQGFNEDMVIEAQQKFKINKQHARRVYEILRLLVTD

p300 = settings: cited from earlier work

Compound	Ki (HAT1)	IC50 (HAT1)	IC50 (p300)	Ki (p300; previous study)
CC(C)(COP(=O)(O)OP(=O)(O)OC[C@H]1O[C@@H](n2cnc3c(N)ncnc32)[C@H](O)[C@@H]1OP(=O)(O)O)[C@@H](O)C(=O)NCCC(=O)NCCS [CoA]	14.6 µM	41.5 µM		
CC(=O)N[C@@H](CCCCNC(=O)CSCCNC(=O)CCNC(=O)[C@H](O)C(C)(C)COP(=O)(O)OP(=O)(O)OC[C@H]1O[C@@H](n2cnc3c(N)ncnc32)[C@H](O)[C@@H]1OP(=O)(O)O)C(N)=O [Lys-CoA, Ac-Lys(CoA)-NH2]	26.2 µM	74.9 µM	0.5 µM	0.019 µM
